The values that follow come from patent US11364256B2, “Viral inhibition” (Monash University, priority 2020, dated 2022).

The assay deals with SARS-CoV-2 clinical isolate Australia/VIC01/2020. The assay can be described thus: Multidose treatment of SARS-CoV-2 infected Vero/hSLAM or CALU-3 cells, viral load by real-time PCR. Type of assay: cell-based. As to conditions: drug replaced at 8, 24, 32 and 48 h, Vero/hSLAM or CALU-3, MOI 0.01. The method, then: Vero/hSLAM cells (FIG. 4, panels A/C) or CALU-3 (FIG. 4, panels B/D) cells were infected with SARS-CoV-2 clinical isolate Australia/VIC01/2020 (MOI=0.01) for 2 h prior to addition of vehicle (DMSO), Ivermectin (A/B) or Moxidectin (C/D) at the concentrations indicated in FIG. 4. Supernatant was harvested at 8, 24, 32 and 48 h and replaced with fresh media containing the same concentration of drug or DMSO. Samples were quantitated for viral load using real-time PCR. Results represent mean±SD (n=6) relative to DMSO alone under the same conditions. Three parameter dose response curves were fitted using GraphPad prism. The data presented in FIG. 4 are single typical graphs from a series of two similar experiments.
For orientation: Quantitative PCR measures a nucleic acid by following its amplification.

As for ivermectin, the “effect of multidose treatment on SARS-CoV-2 anti-viral activity” value is given as “enhances SARS-CoV-2 anti-viral activity compared to single treatment”.
